Test results published in patent US12161607B2, “Combination of cannabinoids in the treatment of leukemia” (Jazz Pharmaceuticals Research UK Limited, priority 2017, dated 2024).
Read-outs that look alike come from different tables or passages of the source.

Test system: HL60 cell line
Experiment: Combination study, modulatory effect: IC50 of chemotherapy drug without and with cannabinoid-pair (72 h)
Format: cell-based
Settings: Homo sapiens, HL-60, 72 h, HL60, 72 h, read-out: IC50 for percentage cell viability
Description: FIG. 2. Sensitising chemotherapy action with low doses of cannabinoids. […] The effect of a low dose of CBD/THC or CBD/CBG on the activity of CYT and VIN was also assessed. IC50 values for percentage cell viability were determined by emax models.
Cytarabine (CYT), (Sigma) and vincristine (VIN), (Sigma) were reconstituted in PBS at a stock concentration of 10 mM, and kept at −20° C. for no more than four weeks.
The ability of cannabinoids to modify the efficacy CYT and VIN was studied by assessing and comparing the IC50 of the anti-leukaemia drugs in the absence and presence of the cannabinoids.
The cannabinoids tested were CBD+CBG and CBD+THC, and these were used at a single total sub-optimal concentration of 1 μM in CEM and 5 μM HL60.
Drugs were added (CYT and VIN over a range of concentrations) and cell number determined after 72 h.
The ability of a sub-effective concentration of cannabinoid to alter the efficacy of CYT or VIN was determined by comparing the IC50s of the chemotherapy agents in the absence or presence of the cannabinoid-pair.

For `Nc1ccn([C@@H]2O[C@H](CO)[C@@H](O)[C@@H]2O)c(=O)n1` [cytarabine, Cytarabine], the IC50 (CBD+CBG added (sub-optimal total 5 μM in HL60)) was 150 nM, the IC50 (CBD+THC added (sub-optimal total 5 μM in HL60)) was 8 nM and the IC50 (chemotherapy drug alone) was 100 nM.
